Laboratory results published in ChEMBL document CHEMBL3885881, “DrugMatrix”.

Organism: Rattus norvegicus
Assay: DrugMatrix - Regimen: Daily Repeat
Type: toxicity, organism-based, Sprague-Dawley
Parameters: regimen Daily Repeat, gender Male, age 6-8 weeks
Settings: in vivo, po, route oral GAVAGE, vehicle .5 % CMC; for ABSOLUTE EOSINOPHIL / ABSOLUTE LYMPHOCYTE / ABSOLUTE MONOCYTE / ABSOLUTE SEGMENTED NEUTROPHIL / BASOPHIL / EOSINOPHIL / ERYTHROCYTE COUNT / HEMATOCRIT / HEMOGLOBIN / LEUKOCYTE COUNT / LYMPHOCYTE / MEAN CORPUSCULAR HEMOGLOBIN CONCENTRATION / MEAN CORPUSCULAR VOLUME / MONOCYTE / NEUTROPHIL / NUCLEATED RED BLOOD CELLS / PLATELET COUNT / ABSOLUTE BASOPHIL: tissue Blood; for ALANINE AMINOTRANSFERASE / ALBUMIN / ALKALINE PHOSPHATASE / BLOOD UREA NITROGEN / CARBON DIOXIDE / CHLORIDE / CHOLESTEROL / CREATINE PHOSPHOKINASE / CREATININE / GLUCOSE / LACTATE DEHYDROGENASE / LIPASE / PHOSPHORUS / POTASSIUM / SODIUM / TOTAL BILIRUBIN / TOTAL PROTEIN: tissue Plasma
[1] = 60 mg/kg, 120 h, dose level High, time 5 day
[2] = […], 72 h, dose 1.5 mg/Kg, dose level Low, time 3 day
[3] = […], 120 h, dose 1.5 mg/Kg, dose level Low, time 5 day

CO[C@H]1C[C@@H]2CC[C@@H](C)[C@@](O)(O2)C(=O)C(=O)N2CCCC[C@H]2C(=O)O[C@H]([C@H](C)C[C@@H]2CC[C@@H](O)[C@H](OC)C2)CC(=O)[C@H](C)/C=C(\C)[C@@H](O)[C@@H](OC)C(=O)[C@H](C)C[C@H](C)/C=C/C=C/C=C/1C [SIROLIMUS]
ABSOLUTE EOSINOPHIL [1]: 0 CELLS/uL
ABSOLUTE LYMPHOCYTE [1]: 6680.33 CELLS/uL
ABSOLUTE MONOCYTE [1]: 49.67 CELLS/uL
ABSOLUTE SEGMENTED NEUTROPHIL [1]: 670 CELLS/uL
BASOPHIL [1]: 0%
EOSINOPHIL [1]: 0%
ERYTHROCYTE COUNT [1]: 6.63 x10E6/uL
HEMATOCRIT [1]: 40%
HEMOGLOBIN [1]: 15.77 G/DL
LEUKOCYTE COUNT [1]: 7.4 x10E3/uL
LYMPHOCYTE [1]: 90.33%
MEAN CORPUSCULAR HEMOGLOBIN CONCENTRATION [1]: 39.4 G/DL
MEAN CORPUSCULAR VOLUME [1]: 60.43 fL
MONOCYTE [1]: 0.67%
NEUTROPHIL [1]: 9%
NUCLEATED RED BLOOD CELLS [1]: 0 /100WBC
PLATELET COUNT [1]: 709.33 x10E3/uL
ALANINE AMINOTRANSFERASE [1]: 49.33 u/L
ALBUMIN [1]: 4.2 G/DL
ALKALINE PHOSPHATASE [1]: 311.67 u/L
BLOOD UREA NITROGEN [1]: 20.67 mg/dL
CARBON DIOXIDE [1]: 28.33 mmol/L
CHLORIDE [1]: 99.67 MEQ/L
CHOLESTEROL [1]: 81.67 mg/dL
CREATINE PHOSPHOKINASE [1]: 479 u/L
CREATININE [1]: 0.24 mg/dL
GLUCOSE [1]: 202.33 mg/dL
LACTATE DEHYDROGENASE [1]: 231.33 u/L
LIPASE [1]: 9.67 u/L
PHOSPHORUS [1]: 10.43 mg/dL
POTASSIUM [1]: 4.97 MEQ/L
SODIUM [1]: 145.27 MEQ/L
TOTAL BILIRUBIN [1]: 0.2 mg/dL
TOTAL PROTEIN [1]: 6.23 G/DL
ABSOLUTE BASOPHIL [2]: 0 CELLS/uL
ABSOLUTE EOSINOPHIL [2]: 267 CELLS/uL
ABSOLUTE LYMPHOCYTE [2]: 13791 CELLS/uL
ABSOLUTE MONOCYTE [2]: 267 CELLS/uL
ABSOLUTE SEGMENTED NEUTROPHIL [2]: 1575 CELLS/uL
BASOPHIL [2]: 0%
EOSINOPHIL [2]: 1.67%
ERYTHROCYTE COUNT [2]: 5.63 x10E6/uL
HEMATOCRIT [2]: 36.33%
HEMOGLOBIN [2]: 13.8 G/DL
LEUKOCYTE COUNT [2]: 15.9 x10E3/uL
LYMPHOCYTE [2]: 87%
MEAN CORPUSCULAR HEMOGLOBIN CONCENTRATION [2]: 38 G/DL
MEAN CORPUSCULAR VOLUME [2]: 64.5 fL
MONOCYTE [2]: 1.67%
NEUTROPHIL [2]: 9.67%
NUCLEATED RED BLOOD CELLS [2]: 0 /100WBC
PLATELET COUNT [2]: 1156 x10E3/uL
ALANINE AMINOTRANSFERASE [2]: 52.33 u/L
ALBUMIN [2]: 4.23 G/DL
ALKALINE PHOSPHATASE [2]: 361.33 u/L
BLOOD UREA NITROGEN [2]: 17.33 mg/dL
CARBON DIOXIDE [2]: 27.33 mmol/L
CHLORIDE [2]: 99 MEQ/L
CHOLESTEROL [2]: 79.33 mg/dL
CREATINE PHOSPHOKINASE [2]: 205.33 u/L
CREATININE [2]: 0.21 mg/dL
GLUCOSE [2]: 162 mg/dL
LACTATE DEHYDROGENASE [2]: 201.67 u/L
LIPASE [2]: 10 u/L
PHOSPHORUS [2]: 12.33 mg/dL
POTASSIUM [2]: 6.49 MEQ/L
SODIUM [2]: 144 MEQ/L
TOTAL BILIRUBIN [2]: 0.2 mg/dL
TOTAL PROTEIN [2]: 6 G/DL
ABSOLUTE BASOPHIL [3]: 0 CELLS/uL
ABSOLUTE EOSINOPHIL [3]: 0 CELLS/uL
ABSOLUTE LYMPHOCYTE [3]: 12718.33 CELLS/uL
ABSOLUTE MONOCYTE [3]: 96 CELLS/uL
ABSOLUTE SEGMENTED NEUTROPHIL [3]: 1619 CELLS/uL
BASOPHIL [3]: 0%
EOSINOPHIL [3]: 0%
ERYTHROCYTE COUNT [3]: 5.45 x10E6/uL
HEMATOCRIT [3]: 33.87%
HEMOGLOBIN [3]: 13.8 G/DL
LEUKOCYTE COUNT [3]: 14.43 x10E3/uL
LYMPHOCYTE [3]: 87.67%
MEAN CORPUSCULAR HEMOGLOBIN CONCENTRATION [3]: 40.77 G/DL
MEAN CORPUSCULAR VOLUME [3]: 62.2 fL
MONOCYTE [3]: 0.67%
NEUTROPHIL [3]: 11.67%
NUCLEATED RED BLOOD CELLS [3]: 0 /100WBC
PLATELET COUNT [3]: 1286.33 x10E3/uL
ALANINE AMINOTRANSFERASE [3]: 92.33 u/L
ALBUMIN [3]: 3.8 G/DL
ALKALINE PHOSPHATASE [3]: 328.67 u/L
BLOOD UREA NITROGEN [3]: 17.33 mg/dL
CARBON DIOXIDE [3]: 20.33 mmol/L
CHLORIDE [3]: 99 MEQ/L
CHOLESTEROL [3]: 66.67 mg/dL
CREATINE PHOSPHOKINASE [3]: 1089 u/L
CREATININE [3]: 0.25 mg/dL
GLUCOSE [3]: 251.33 mg/dL
LACTATE DEHYDROGENASE [3]: 725.33 u/L
LIPASE [3]: 11 u/L
PHOSPHORUS [3]: 14.07 mg/dL
POTASSIUM [3]: 6.17 MEQ/L
SODIUM [3]: 142.93 MEQ/L
TOTAL BILIRUBIN [3]: 0.2 mg/dL
TOTAL PROTEIN [3]: 5.43 G/DL
